We go through six compounds from patent US11904040B2, “Zinc-amino acid-lauryl sulfate complex with antimicrobial activity” (Colgate-Palmolive Company, priority 2018, dated 2024).

One series relates to S. mutans. Description: Metabolic inhibition of S. mutans (autotitrator base consumption after glucose). Type of series: cell-based. The following applies: for % Metabolic Reduction: S. mutans in 135 mM KCl, final zinc concentration 2.5 ppm (SLS equimolar to LS in Zn(Lys)2(LS)2), pH 7, 30 minutes, vs control containing only bacteria. The procedure: The chelation of zinc can modify its efficacy as an antibacterial agent. […] S. mutans is one of the prevalent bacteria present in the oral cavity. A concentrated suspension of S. mutans in 135 mM KCl was treated with a known concentration of zinc salt to obtain a final zinc concentration of 2.5 ppm. […] Using an autotitrator (Methrom Titrando 902) equipped with a 0.01M solution of KOH, the bacterial suspension was equilibrated to pH=7. After equilibrating, glucose was added to the solution. The autotitrator maintained the pH at 7 through the precise addition of KOH solution. The experiment was allowed to proceed for 30 minutes and the volume of base added was recorded at 10 second intervals. After 30 mins, a growth curve of base addition over time was obtained. The area under this curve was compared to the area under the curve for a control sample containing only bacteria and used to calculate a % reduction value. The control sample was analyzed from the same bacterial suspension as the test sample and the two samples were analyzed within 3 hours of each other. In order for data from a given suspension of S. mutans to be included, the control sample must consume at least 5 mL of base solution during the 30 minute time period.

Series [1] in a line: Potentiometric titration, stability constants of the Zn, Lysine, SLS system. The conditions noted are these: 25C, 50:50 glycerin:de-ionized water, 100 mM KNO3, 5 mM Zn.

“zinc-arginine-lauryl sulfate [Zn(Arg)2(LS)2]”: the “% Metabolic Reduction” value in the series on S. mutans was determined as 72.53 ± 3.76%. The “antibacterial performance compared to corresponding zinc-amino acid complex” value in the series with S. mutans (S. mutans metabolic reduction, Table 10) is “directionally improved antibacterial performance compared to [Zn(Arg)2]^2+”.

With zinc arginate [[Zn(Arg)2]^2+], in the series with S. mutans, the “% Metabolic Reduction” value amounted to 67.19 ± 0.32%.

As for `O=[N+]([O-])[O-].O=[N+]([O-])[O-].[Zn+2]` [Zn(NO3)2], in the series with S. mutans, the “% Metabolic Reduction” value stood at 67.16 ± 2.49%.

Take `NCCCC[C@H](N)C(=O)O` [HLys]: in series [1], the “Log(B) stability constant” value is recorded as 10.07.

As for `CCCCCCCCCCCCOS(=O)(=O)[O-].[Na+]` [Sodium lauryl sulfate, sodium lauryl sulfate], the “% Metabolic Reduction” value in the series with S. mutans turned out to be 34.12 ± 1.56%.

In the case of `NCCCCC(N)C(=O)O.NCCCCC(N)C(=O)O.[Cl-].[Cl-].[Zn+2]` (stereo not shown) [ZLC, [Zn(C6H14N2O2)2Cl]^+Cl^−], the “% Metabolic Reduction” value with S. mutans is on record as 53.90 ± 2.36%.
